# Measured values from patent publication EP0497258B1, “Use of adenosine antagonists in the prevention and treatment of pancreatitis and ulcer” (FUJISAWA PHARMACEUTICAL CO., LTD., priority 1991, dated 1992).
# Tests used:
# Assay type in all cases: in vivo, Sprague-Dawley rats
# [1] = tested on: serum amylase increment induced by caerulein administration with water immersion restraint stress; assay: Effect on serum amylase increment induced by caerulein administration with water immersion restraint stress; conditions: male rats, caerulein 50 µg/kg s.c. + water immersion restraint at 23°C for 7 hours; 1 mg/kg orally 30 minutes before caerulein; mean ± standard error; control group 22.5 ± 3.3
# Description: Male Sprague-Dawley rats (6 rats for one group) weighing 210 to 240 g were fasted for 24 hours but allowed free access to water ad libitum. Immediately after caerulein administration (50 µg/kg/2 ml s.c.), rats were placed in restraint cages and immersed in water at 23°C for 7 hours. The animals were killed and blood sample was collected from femoral blood vessels. Serum amylase was measured using Neo-Amylase Test "DAIICHI" (trademark, prepared by DAIICHI KAGAKU YAKUHIN). The test compound (1) (1 mg/kg/5 ml) for the test group or vehicle (0.1 % methyl cellulose, 5 ml/kg) for the control group was given orally 30 minutes before caerulein administration.
# Serum amylase concentration was expressed as mean ± standard error.
# [2] = tested on: ischemia induced gastric ulcer; assay: Effect on ischemia induced gastric ulcer (left gastric artery ligation)
# Description: Male Sprague-Dawley rats (9 or 10 rats for one group) weighing 230 to 270 g were fasted for 24 hours but allowed free access to water ad libitum.
# Under ether anesthesia, the abdomen was incised and the left gastric artery was ligated. After closing the abdomen, animals were maintained an regular feed with water ad libitum. The test compound (1) (10 mg/kg/5 ml) for the test group or vehicle (0.1 % methyl cellulose, 5 ml/kg) for the control group was given orally twice a day (9:00 a.m. and 5:00 p.m.) from the first day after the operation for 3 consecutive days. On the fourth day after the operation, the test compound (for the test group) or vehicle (for the control group) was given at 9:00 a.m. and animals were killed at.5:00 p.m.. The stomach was examined for ulcers.
# Ulcer index was expressed as lesion area (mean ± standard error).
# [3] = tested on: CHA(N^6-cyclohexyladenosine)-induced pancreatitis; assay: Effect on CHA-induced pancreatitis (serum amylase); conditions: 10 mg/kg orally 30 minutes before CHA; for inhibition %: inhibition of CHA-induced serum amylase increase; for serum amylase (10^3 IU/ℓ): male rats, CHA 3.2 mg/kg orally, blood after 24 hours, Normal 4.1 ± 0.2, Control 28.3 ± 10.0
# Description: Male Sprague-Dawley rats, weighing 245-260 g, were deprived of food but allowed free access to water for 24 hours CHA was given orally at a dose of 3.2 mg/kg. After 24 hours, animals were killed and blood samples were collected. Subsequently, the blood serum was prepared and amylase concentration was determined. The test compounds (1) to (5) (10 mg/kg) or vehicle (to control group) was given orally 30 minutes before CHA administration. In Normal group, vehicle was given instead of CHA.
# [4] = tested on: CHA(N^6-cyclohexyladenosine)-induced gastric ulcer; assay: Effect on CHA-induced gastric ulcer; conditions: 10 mg/kg orally 30 minutes before CHA; for inhibition %: inhibition of ulcer index vs Control; for ulcer index (mm^2): male rats, CHA 1 mg/kg subcutaneously, stomachs examined after 7 hours, Control 65.0 ± 18.4
# Description: Male Sprague-Dawley rats, weighing 225-259 g, were deprived of food but allowed free access to water for 24 hours. CHA was given subcutaneously at a dose of 1 mg/kg. After 7 hours, animals were killed and stomachs were removed. Subsequently, the stomachs were inflated by injecting 12 ml of 2% formalin to fix the inner layer of gastric walls. Ten minutes later, they were incised along the greater curvature and examined for lesions. Test Compounds (1) to (5) (10 mg/kg) or vehicle (to control group) was given orally 30 minutes before CHA administration.
SMILES,serum amylase (10^3 IU/L) [1],"inhibition % ([2]; inhibition of ulcer index vs control group, 10 mg/kg orally twice a day)","ulcer index (mm^2) ([2]; male rats, left gastric artery ligated, 10 mg/kg orally twice a day from first day after operation, killed on fourth day, lesion area, mean ± standard error, control group 26.2 ± 6.0)",inhibition % [3],serum amylase (10^3 IU/ℓ) [3],inhibition % [4],ulcer index (mm^2) [4]
"O=C(C=Cc1c(-c2ccccc2)nn2ccccc12)N1CCCC[C@@H]1CCO [Test Compound (1), (2R)-1-[3-(2-Phenylpyrazolo[1,5-a]pyridin-3-yl)acryloyl]-2-(2-hydroxyethyl)piperidine]",13.8 ± 1.0 10^3 IU/L,45.8%,14.2 ± 4.0 mm^2,69.4%,11.5 ± 5.8 10^3 IU/ℓ,99.4%,0.4 ± 0.4 mm^2
"O=C(O)CCCn1nc(-c2c(-c3ccccc3)nn3ccccc23)ccc1=O [Test Compound (2), 3-[2-(3-Carboxypropyl)-3-oxo-2,3-dihydropyridazin-6 yl]-2-phenylpyrazolo[1,5-a]pyridine]",–,–,–,99.6%,4.2 ± 0.3 10^3 IU/ℓ,97.1%,1.9 ± 1.9 mm^2
"O=C(O)C[C@H]1CCCCN1C(=O)C=Cc1c(-c2ccccc2)nn2ccccc12 [Test Compound (3), (2R)-1-[3-(2-Phenylpyrazolo[1,5-a]pyridin-3-yl)acryloyl]-2-(carboxymethyl)piperidine]",–,–,–,92.6%,5.9 ± 1.0 10^3 IU/ℓ,99.8%,0.1 ± 0.1 mm^2
